Test [1] concerns Bacillus subtilis. Kind of test: Antibacterial micro-dilution test (MIC), B.s. Format: cell-based. The note with it: read-out: MIC B.s. How it is done: (§1) Antibacterial test of secondary metabolites isolated from the resinous exudates of Adesmia plants against the pathogen (Psa), from isolates made in Chile and Italy, also tested on other bacteria of interest, in vitro.
(§2) All strains were cultivated in Nutrient culture medium supplemented with 3% sucrose (SNA), and incubated at 27° C. The bacterial inoculum was produced in Mueller-Hinton (MH) culture medium in glass test tubes and incubated at 27° C. in an orbital shaker at 150 rpm in the dark for 24 hours. A stock solution of each molecule was prepared to obtain a concentration of 2000 mg/L, later they were diluted in a 96-well microplate with MH culture medium and thus obtain the different concentrations of […] of each molecule. The antibacterial activity of the molecules was determined by the method of micro-dilution of the substance to be tested. Four controls were used: negative control (only MH liquid culture medium inoculated with bacteria); positive control (liquid MH culture medium adding Chloramphenicol at the same concentrations tested inoculated with bacteria and in the case of the Italian strain, copper sulfate was added), negative control (1) only substances plus solvent (liquid MH culture medium plus ethanol at 1% without inoculating bacteria) and a white control (only MH liquid culture medium, without inoculating). The bacterial suspension of each of the strains was adjusted to 0.5 McFarland (1×10^8 cfu/ml), inoculating 1.5 μL per well in the microplate and subsequently incubated at 27° C. for 24 hours.
(§3) Through the evaluation of absorbance at 600 nm in an Accu Reader M965 spectrophotometer, those treatments that were effective in inhibiting growth compared to the negative control were selected, to subsequently quantify the percentage of inhibition. The absorbances or optical density (O.D) were converted to percentage of antibacterial inhibition (PIAB) using the following formula: […]

Test [2] has as its system Pseudomonas syringae syringae. Kind of test: Antibacterial micro-dilution test (MIC), Pss. Format: cell-based. The settings on record: MH medium, 27° C., 24 hours. The procedure:
as §1
(§4) All strains were cultivated in Nutrient culture medium supplemented with 3% sucrose (SNA), and incubated at 27° C. The bacterial inoculum was produced in Mueller-Hinton (MH) culture medium in glass test tubes and incubated at 27° C. in an orbital shaker at 150 rpm in the dark for 24 hours. A stock solution of each molecule was prepared to obtain a concentration of 2000 mg/L, later they were diluted in a 96-well microplate with MH culture medium and thus obtain the different concentrations of […] of each molecule. The antibacterial activity of the molecules was determined by the method of micro-dilution of the substance to be tested. […]
as §3
In general terms: Dilution methods test growth across graded concentrations, often in twofold steps.

Test [3] relates to Pseudomonas syringae pv actinidiae code 8.43. Kind of test: Antibacterial micro-dilution test (MIC), Psa 8.43. Format: cell-based. The note with it: read-out: MIC Psa 8.43. How it is done: as §1, §2
(§5) The absorbances or optical density (O.D) were converted to percentage of antibacterial inhibition (PIAB) using the following formula:
(§6) In addition, […] aliquots of each of the concentrations were swept in a petri dish to observe the presence or absence of Psa colonies after 48 hours.

The test system of test [4] is Pseudomonas syringae pv actinidiae code 770. As to the kind of experiment: Antibacterial micro-dilution test (MIC), Psa 770. Format: cell-based. The settings on record: read-out: MIC Psa 770. How it is done: as §1, §2, §5, §6
The subject of test [5] is Pseudomonas syringae pv actinidiae (Psa) 190770. Kind of test: In vivo antibacterial activity test in Kiwi seedlings, phytopathological evaluation. More on the design: species or system Kiwi A. chinensis. The settings on record: 500 ug/mL. The text has this: In vivo antibacterial activity tests of the compounds of the present invention, in Kiwi crops.
It is important to point out that the Chilean patent application 0881-2018 of the same inventors of the present invention, describes a procedure to prepare a composition obtained from resinous exudates of the aerial parts of plants of the genus Adesmia, to control in vitro and in vivo infections. in plant crops. In addition, methods for controlling infections in plant crops are described, which comprise applying said composition to crops infected with various microorganisms. […] For this, Kiwi A. chinensis seedlings from in vitro propagation were used. The bacterium Pseudomonas syringae pv actinidiae (Psa) 190770 used in the in vitro tests was used. The plants were kept in aseptic chambers with 50% relative humidity, under controlled temperature conditions (20° C.±2) and a photoperiod regimen of 12 hours of light and 12 hours of darkness. Both the application of the treatments and inoculation were applied in the summer season. The bacterial inoculum was sprayed on the surface of the leaves of the plants, which had been subjected to small wounds on the leaves. […] Control plants were only sprayed with sterile distilled water and kept isolated from the others treated with Psa.
(§7) The evaluations were made periodically to observe the symptoms of the plant (Table No. 4) and the samples were taken at the third and fourth week from the inoculation, in which the leaves were collected at the moment of beginning to see symptoms or in their defect a month after starting the trial, they were frozen in RNALater® and stored at −80° C. for RNA isolation.

The test system of test [6] is Erwinia carotovora. Kind of test: Antibacterial micro-dilution test (MIC), E.c. It is filed as cell-based. The settings on record: Pectobacterium carotovorum, read-out: MIC E.c. How it is done:
as §1, §4, §3

For test [7], the system named is S. aureus. As to the kind of experiment: Membrane integrity by Sytox Green staining, S. aureus. Format: cell-based. The note with it: 50 ug/mL, 3 hours of incubation, fluorescence microscope. How it is done:
(§8) Determination of the effect of compound 2 4′ dihydroxychalcone (compound No. 4) on the integrity of the membrane of Gram negative and Gram positive bacteria.
(§9) Because several studies have established that phenolic compounds destroy the bacterial membrane, the effect of the major compound […] (compound No. 4) present in the exudate of plants of the Adesmia genus was evaluated, which was attributes the antibacterial activity that they present against Pseudomonas syringae pv actinidiae (Psa). It was tested against Gram-negative bacteria of agricultural importance Erwinia carotovora by Sytox Green staining. […] In this way, through the observation of nuclei stained with Sytox in the fluorescence microscope (100×), it is evident that the mechanism of action of the compound against both the Gram positive bacteria S. aureus and Gram negative E. carotovora is the destruction of the plasma membrane (FIG. 11c).

The subject of test [8] is E. carotovora. As to the kind of experiment: Membrane integrity by Sytox Green staining, E. carotovora. It is filed as cell-based, Erwinia carotovora. The note with it: 50 ug/mL, 3 hours of incubation, fluorescence microscope. How it is done:
FIG. 11: Effect of 2′, 4′ dihydroxychalcone on the integrity of the cell membrane of E. carotovora. The bacteria were incubated in a culture medium at 22 QC in the presence of 30% (v/v) ethanol (a), 5% methanol; 50 ug/mL of the compound against E. carotovora seen in bright field (b) and seen under fluorescence (c) for 3 hours of incubation.
as §8, §9

Test [9] concerns Pseudomonas syringae pv actinidiae (Psa). As to the kind of experiment: Absolute quantification of Psa infecting kiwi plants by qRT-PCR. Format: in vivo, Kiwi A. chinensis. The settings on record: leaves, 3-4 weeks after inoculation, replicate runs; listed as Treatment 3. How it is done: as §7
For this, the total RNA of the problem samples was isolated from 80 to 100 mg of tissue from the leaves of A. chinensis belonging to the applied treatments, which were extracted with the E.Z.N.A.® PLANT RNA Kit using the protocol for difficult samples described by the manufacturer and the concentration of the extracted material was quantified through the Nanodrop equipment. The qRT-PCR was performed using the AriaMx Realtime PCR System equipment, using the Takion Sybrgreen+One step converter kit and specific primers synthesized by IDT (Integrated DNA Technologies) (See Table 6).
The program conditions were 48° C. for 10 min, 95° C. for 3 min, followed by 40 cycles of 95° C. for 10 sec, alignment and extension at 60° C. for 50 sec; then the melting curves 95° C. for 30 sec., 65° C. for 30 sec., and 95° C. for 30 sec. […] The number of copies/ng of Total Psa RNA were calculated through the equation of the straight line provided by the equipment, which was analyzed with the standard curve included in each qRT-PCR run.
On the technique in general: Quantitative PCR measures a nucleic acid by following its amplification.

The mark [10] stands for this setting: micro-dilution, MH medium, 27° C., 24 hours.

Values joined by “and” are separate entries in the source; they are usually repeats but may differ in a detail not shown here. Identical values can stand only once. Like-named read-outs stand apart in the source and are kept apart here. Bounds are passed on as bounds.

As usually defined, the MIC is the least concentration at which growth counts as inhibited. Consider `O=C(/C=C/c1ccccc1)c1c(O)cc(O)cc1O` [Compound 10, 2′,4′, 6′-trihydroxy chalcone], for which the MIC is at least 10 µg/mL in test [1] (setting [10]), at least 50 µg/mL in test [2], at least 50 µg/mL in [3] (setting [10]) and at least 50 µg/mL in test [4] (setting [10]).

Regarding `CC(C)=CCc1c(O)ccc(C(=O)/C=C/c2ccccc2)c1O` [Compound 3, isochordine], in [4] (24 h), the MIC is at least 1600 µg/mL.

With `CC(C)=CCc1c(O)cc(O)c2c1O[C@H](c1ccccc1)CC2=O` [Compound 2, glabranin], in test [4] (24 h), the MIC was at least 400 µg/mL.

As to `CC(C)=CCc1cc(C(=O)CCc2ccccc2)c(O)cc1O` [Compound 1], the MIC is at least 200 µg/mL in test [3] (24 h) and at least 400 µg/mL in test [4] (24 h).

As for `O=C(/C=C/c1ccccc1)c1ccc(O)cc1O` [Compound 4, 2′,4′-dihydroxychalcone], the “in vivo inhibition of the disease caused by Psa in Kiwi cultures” value in [5] was “in vivo inhibition of the disease”. Also, the “plants without visual symptoms of the disease (level 0, healthy plants)” value in test [5] (preventive treatment) is listed as 60%. Also, in test [5] (preventive, sprayed 24 hours before inoculation), the Percentage of incidence is on record as 40%. For the same compound, the “Level of Incidence according to category (Maximum value 3)” value in test [5] (preventive, sprayed 24 hours before inoculation, damage scale 0-3 of Table No. 4) stood at 0.4. Further, the MIC is at least 10 µg/mL in test [6] (24 h), at least 10 µg/mL in test [1] (24 h), at least 50 µg/mL in test [3] (24 h) and at least 200 µg/mL in [4] (24 h). Moreover, the “effect on the integrity of the plasmatic membrane” value in test [7] and in [8] was “alteration of the plasmatic membrane was observed” each time. Besides, the Ct in test [9] is 29.17 and 27.80 and 30.01.

For `COc1ccc(C(=O)CCc2ccccc2)c(OC)c1` [Compound 9, 2′,4′-dimethoxydihydrochalcone], the MIC in test [6] (setting [10]) was at least 10 µg/mL; in [1] (setting [10]), at least 10 µg/mL; in test [2], at least 50 µg/mL; in test [3] (setting [10]), at least 1600 µg/mL; in test [4] (setting [10]) it was at least 400 µg/mL.
